Conditions: 101.33 kPa, Liquid, Hot wire method

Cc1ccc(C)cc1 [1,4-dimethylbenzene]
Conditions | thermal conductivity [W/m/K] | thermal diffusivity [m2/s]
287.33 K | 0.1296 | –
287.55 K | 0.1295 | –
287.73 K | 0.1294 | –
288.19 K | – | 8.96e-08
288.74 K | – | 8.89e-08
289.19 K | – | 8.92e-08
294.03 K | 0.1278 | –
294.27 K | 0.1278 | –
294.44 K | 0.1277 | –
294.86 K | – | 8.78e-08
295.48 K | – | 8.82e-08
295.9 K | – | 8.82e-08
311.71 K | 0.1234 | –
311.94 K | 0.1232 | –
312.11 K | 0.1231 | –
312.56 K | – | 8.41e-08
313.14 K | – | 8.38e-08
313.56 K | – | 8.36e-08
328.75 K | 0.1191 | –
328.99 K | 0.119 | –
329.16 K | 0.1189 | –
329.6 K | – | 8.03e-08
330.21 K | – | 8.02e-08
330.63 K | – | 8.01e-08

C=CCCCCC [1-heptene]
Conditions | thermal conductivity [W/m/K] | thermal diffusivity [m2/s]
262.46 K | 0.1325 | –
262.75 K | 0.1324 | –
262.97 K | 0.1324 | –
263.83 K | – | 9.06e-08
264.74 K | – | 9.11e-08
265.37 K | – | 9.1e-08
280.48 K | 0.1268 | –
280.8 K | 0.1267 | –
281.03 K | 0.1264 | –
281.93 K | – | 8.66e-08
282.87 K | – | 8.67e-08
283.53 K | – | 8.66e-08
297.36 K | 0.1213 | –
297.71 K | 0.1213 | –
297.95 K | 0.1212 | –
298.89 K | – | 8.27e-08
299.87 K | – | 8.27e-08
300.55 K | – | 8.25e-08
320.47 K | 0.1144 | –
320.83 K | 0.1143 | –
321.08 K | 0.1142 | –
322.07 K | – | 7.76e-08
323.1 K | – | 7.76e-08
323.81 K | – | 7.73e-08

C=CCCC [1-pentene]
Conditions | thermal conductivity [W/m/K] | thermal diffusivity [m2/s]
257.36 K | 0.1284 | –
257.67 K | 0.1283 | –
257.93 K | 0.1283 | –
258.93 K | – | 9.28e-08
259.91 K | – | 9.28e-08
260.57 K | – | 9.25e-08
276.47 K | 0.121 | –
276.82 K | 0.1209 | –
277.07 K | 0.1203 | –
278.11 K | – | 8.65e-08
279.18 K | – | 8.7e-08
279.9 K | – | 8.66e-08
294.04 K | 0.1141 | –
294.42 K | 0.1139 | –
294.66 K | 0.1139 | –
295.8 K | – | 8.2e-08
296.87 K | – | 8.16e-08
297.67 K | – | 8.16e-08
301.07 K | 0.1113 | –
301.46 K | 0.1112 | –
301.75 K | 0.1111 | –
302.88 K | – | 7.99e-08
303.99 K | – | 7.96e-08
304.8 K | – | 7.96e-08

C=C(C)C(C)C [2,3-dimethyl-1-butene]
Conditions | thermal conductivity [W/m/K] | thermal diffusivity [m2/s]
258.98 K | 0.117 | –
259.29 K | 0.1169 | –
259.4 K | 0.1168 | –
260.37 K | – | 8.17e-08
261.29 K | – | 8.19e-08
261.55 K | – | 8.16e-08
278.29 K | 0.1108 | –
278.63 K | 0.1106 | –
278.87 K | 0.1105 | –
279.73 K | – | 7.65e-08
280.7 K | – | 7.67e-08
281.39 K | – | 7.68e-08
294.18 K | 0.1058 | –
294.53 K | 0.1056 | –
294.78 K | 0.1055 | –
295.65 K | – | 7.3e-08
296.68 K | – | 7.29e-08
297.38 K | – | 7.28e-08
312.86 K | 0.1002 | –
313.23 K | 0.1 | –
313.5 K | 0.09991 | –
314.43 K | – | 6.88e-08
315.45 K | – | 6.84e-08
316.18 K | – | 6.83e-08
322.51 K | 0.0974 | –
322.9 K | 0.0973 | –
323.18 K | 0.0972 | –
324.07 K | – | 6.6e-08
325.17 K | – | 6.65e-08
325.9 K | – | 6.62e-08
326.52 K | 0.09639 | –
326.91 K | 0.09621 | –
327.21 K | 0.09612 | –
328.13 K | – | 6.58e-08
329.22 K | – | 6.58e-08
330.05 K | – | 6.62e-08

CC(C)=C(C)C [2,3-dimethyl-2-butene]
Conditions | thermal conductivity [W/m/K] | thermal diffusivity [m2/s]
258.89 K | 0.1356 | –
259.17 K | 0.1355 | –
259.37 K | 0.1354 | –
260.14 K | – | 9.38e-08
260.96 K | – | 9.41e-08
261.54 K | – | 9.41e-08
278.21 K | 0.1285 | –
278.5 K | 0.1283 | –
278.72 K | 0.1283 | –
279.54 K | – | 8.88e-08
280.38 K | – | 8.85e-08
281 K | – | 8.85e-08
294.09 K | 0.1228 | –
294.4 K | 0.1226 | –
294.63 K | 0.1225 | –
295.49 K | – | 8.48e-08
296.37 K | – | 8.44e-08
297.02 K | – | 8.45e-08
312.76 K | 0.1162 | –
313.09 K | 0.116 | –
313.34 K | 0.1159 | –
314.2 K | – | 7.96e-08
315.15 K | – | 7.95e-08
315.82 K | – | 7.94e-08
322.4 K | 0.1128 | –
322.74 K | 0.1126 | –
322.98 K | 0.1125 | –
323.81 K | – | 7.58e-08
324.73 K | – | 7.56e-08
325.39 K | – | 7.54e-08
326.42 K | 0.1116 | –
326.77 K | 0.1115 | –
327.02 K | 0.1114 | –
327.89 K | – | 7.6e-08
328.9 K | – | 7.63e-08
329.57 K | – | 7.59e-08

[2H]c1c([2H])c([2H])c([2H])c([2H])c1[2H] [benzene-d6]
Conditions | thermal conductivity [W/m/K] | thermal diffusivity [m2/s]
280.76 K | 0.1398 | –
281.06 K | 0.1397 | –
281.26 K | 0.1396 | –
282.09 K | – | 8.1e-08
282.98 K | – | 8.15e-08
283.58 K | – | 8.12e-08
291.53 K | 0.1364 | –
291.83 K | 0.1363 | –
292.04 K | 0.1362 | –
292.92 K | – | 7.93e-08
293.83 K | – | 7.96e-08
294.46 K | – | 7.95e-08
304.05 K | 0.1323 | –
304.37 K | 0.1322 | –
304.59 K | 0.1321 | –
305.49 K | – | 7.7e-08
306.42 K | – | 7.69e-08
307.08 K | – | 7.69e-08
316.34 K | 0.1284 | –
316.66 K | 0.1283 | –
316.89 K | 0.1282 | –
317.82 K | – | 7.46e-08
318.77 K | – | 7.45e-08
319.44 K | – | 7.44e-08
326.75 K | 0.1252 | –
327.08 K | 0.125 | –
327.31 K | 0.1249 | –
328.26 K | – | 7.25e-08
329.22 K | – | 7.23e-08
329.88 K | – | 7.2e-08

c1ccccc1 [benzene]
Conditions | thermal conductivity [W/m/K] | thermal diffusivity [m2/s]
281.18 K | 0.1464 | –
281.49 K | 0.1462 | –
281.76 K | 0.1461 | –
282.86 K | – | 9.74e-08
283.9 K | – | 9.74e-08
284.75 K | – | 9.72e-08
295.92 K | 0.1416 | –
296.25 K | 0.1414 | –
296.53 K | 0.1413 | –
297.67 K | – | 9.4e-08
298.78 K | – | 9.44e-08
299.68 K | – | 9.44e-08
301.25 K | 0.1399 | –
301.59 K | 0.1398 | –
301.87 K | 0.1396 | –
303.02 K | – | 9.29e-08
304.13 K | – | 9.31e-08
305.05 K | – | 9.29e-08
319.14 K | 0.134 | –
319.49 K | 0.1338 | –
319.79 K | 0.1337 | –
321.04 K | – | 8.97e-08
322.15 K | – | 8.92e-08
323.12 K | – | 8.9e-08

C1=CC2C=CC1C2 [bicyclo[2.2.1]hepta-2,5-diene]
Conditions | thermal conductivity [W/m/K] | thermal diffusivity [m2/s]
258.57 K | 0.1485 | –
258.7 K | 0.1484 | –
258.8 K | 0.1484 | –
258.99 K | – | 1.08e-07
259.32 K | – | 1.08e-07
259.55 K | – | 1.09e-07
276.78 K | 0.1426 | –
276.89 K | 0.143 | –
276.97 K | 0.1429 | –
277.21 K | – | 1.02e-07
277.47 K | – | 1.02e-07
277.66 K | – | 1.01e-07
296.23 K | 0.1371 | –
296.35 K | 0.1369 | –
296.43 K | 0.1368 | –
296.61 K | – | 9.43e-08
296.89 K | – | 9.44e-08
297.1 K | – | 9.45e-08
313.27 K | 0.1315 | –
313.38 K | 0.1314 | –
313.46 K | 0.1313 | –
313.63 K | – | 8.85e-08
313.9 K | – | 8.86e-08
314.1 K | – | 8.86e-08
331.81 K | 0.1256 | –
331.91 K | 0.1255 | –
331.98 K | 0.1254 | –
332.15 K | – | 8.25e-08
332.4 K | – | 8.25e-08
332.57 K | – | 8.24e-08
